Reference: US12252488B2 (Nimbus Saturn, Inc., priority 2021, dated 2025)

Biological target: T1, HPK1 (Homo sapiens, UniProt Q92918)
T1 construct: purchased Invitrogen
Assay: HPK1 biochemical enzyme assay (microfluidic mobility shift assay)
Settings: 1000 uM (1 mM) ATP; Caliper mobility shift; 1.5 nM HPK1; 30 min preincubation; read-out: HPK1 1000UMATP caliper IC50
Procedure, shortened: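 Microfluidic mobility-shift readout with 1.5 nM HPK1 in pH 7.4 buffer; compounds (ten-point curves, top 3 μM final) preincubated 30 min with enzyme/substrate. Reaction started with 1 mM ATP and 1 μM substrate plus 5 mM MgCl2, run 60 min at RT. IC50 values binned into activity classes.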

T1 sequence (Q92918 whole entry): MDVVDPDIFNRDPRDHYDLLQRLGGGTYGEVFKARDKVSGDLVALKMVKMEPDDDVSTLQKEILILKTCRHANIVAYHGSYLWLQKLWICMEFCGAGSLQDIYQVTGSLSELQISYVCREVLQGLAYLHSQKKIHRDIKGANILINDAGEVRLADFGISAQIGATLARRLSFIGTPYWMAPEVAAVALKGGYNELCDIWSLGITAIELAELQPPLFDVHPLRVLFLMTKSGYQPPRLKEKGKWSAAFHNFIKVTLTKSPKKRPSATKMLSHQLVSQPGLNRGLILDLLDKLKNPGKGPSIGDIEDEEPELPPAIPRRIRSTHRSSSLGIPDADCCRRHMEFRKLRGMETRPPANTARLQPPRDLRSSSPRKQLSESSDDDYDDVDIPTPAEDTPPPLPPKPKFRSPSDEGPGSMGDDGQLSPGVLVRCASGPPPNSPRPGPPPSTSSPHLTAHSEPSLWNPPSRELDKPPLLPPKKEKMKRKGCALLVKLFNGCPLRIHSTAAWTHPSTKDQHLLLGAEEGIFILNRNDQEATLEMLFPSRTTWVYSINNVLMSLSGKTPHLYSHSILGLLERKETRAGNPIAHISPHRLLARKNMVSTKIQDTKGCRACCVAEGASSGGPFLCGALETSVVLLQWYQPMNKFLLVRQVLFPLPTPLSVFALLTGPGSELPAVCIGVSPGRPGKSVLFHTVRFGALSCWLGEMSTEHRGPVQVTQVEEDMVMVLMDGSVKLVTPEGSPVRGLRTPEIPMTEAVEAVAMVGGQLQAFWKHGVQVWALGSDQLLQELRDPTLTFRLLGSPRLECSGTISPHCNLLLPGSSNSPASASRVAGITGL

COc1cc(-c2cc(Nc3ccc(N4CCCCC4)cn3)c3c(=O)[nH]ccc3n2)c(F)cc1C(=O)N1CCCCC1 [I-232, 2-[2-fluoro-5-methoxy-4-(piperidine-1-carbonyl)phenyl]-4-[[5-(1-piperidyl)-2-pyridyl]amino]-6H-1,6-naphthyridin-5-one] and COc1cc(-c2cc(Nc3ccc(C#N)cn3)c3c(=O)[nH]ccc3n2)c(F)cc1C(=O)N1CCCCC1 [I-242, 6-[[2-[2-fluoro-5-methoxy-4-(piperidine-1-carbonyl)phenyl]-5-oxo-6H-1,6-naphthyridin-4-yl]amino] pyridine-3-carbonitrile] cannot be ordered by IC50: at most 100 nM for the first, 100 to 1000 nM for the second.

O=C(C1CC1)N1CCC2(CCN(c3cc(Nc4ccc(N5CCC(O)CC5)cn4)c4c(=O)[nH]ccc4n3)CC2)C1 [I-233, 2-[2-(cyclopropanecarbonyl)-2,8-diazaspiro[4.5]decan-8-yl]-4-[[5-(4-hydroxy-1-piperidyl)-2-pyridyl]amino]-6H-1,6-naphthyridin-5-one] and O=c1[nH]ccc2nc(N3CCC4(CCNC4)CC3)cc(Nc3ccc(N4CCC(O)CC4)cn3)c12 [I-235, 2-(2,8-diazaspiro[4.5]decan-8-yl)-4-[[5-(4-hydroxy-1-piperidyl)-2-pyridyl]amino]-6H-1,6-naphthyridin-5-one] cannot be ordered by IC50: at most 100 nM for the first, at most 100 nM for the second.

COc1cc(-c2cc(Nc3cccc(N4CCNCC4)n3)c3c(=O)[nH]ccc3n2)c(F)cc1C(=O)N1CCCCC1 [I-234, 2-[2-fluoro-5-methoxy-4-(piperidine-1-carbonyl)phenyl]-4-[(6-piperazin-1-yl-2-pyridyl)amino]-6H-1,6-naphthyridin-5-one] and COc1cc(-c2cc(Nc3ccc(C4CCNCC4)cn3)c3c(=O)[nH]ccc3n2)c(F)cc1C(=O)N1CCCCC1 [I-245, 2-[2-fluoro-5-methoxy-4-(piperidine-1-carbonyl)phenyl]-4-[[5-(4-piperidyl)-2-pyridyl]amino]-6H-1,6-naphthyridin-5-one] cannot be ordered by IC50: at most 100 nM for the first, at most 100 nM for the second.

O=c1[nH]ccc2nc(N3CCC4(CCCN4)CC3)cc(Nc3ccc(N4CCC(O)CC4)cn3)c12 [I-236, 2-(1,8-diazaspiro [4.5]decan-8-yl)-4-[[5-(4-hydroxy-1-piperidyl)-2-pyridyl]amino]-6H-1,6-naphthyridin-5-one] and O=c1[nH]ccc2nc(N3CCC4(CCCNC4)CC3)cc(Nc3ccc(N4CCC(O)CC4)cn3)c12 [I-239, 2-(2,9-diazaspiro [5.5]undecan-9-yl)-4-[[5-(4-hydroxy-1-piperidyl)-2-pyridyl]amino]-6H-1,6-naphthyridin-5-one] fall in the same range of IC50: 100 to 1000 nM for the first, 100 to 1000 nM for the second.

CN(C)C1CCc2c1ccc(-c1cc(Nc3ccc(N4CCC(O)CC4)cn3)c3c(=O)[nH]ccc3n1)c2F (centres unmarked) [I-237, 2-[1-(dimethyl-amino)-4-fluoro-indan-5-yl]-4-[[5-(4-hydroxy-1-piperidyl)-2-pyridyl]amino]-6H-1,6-naphthyridin-5-one] and CN(C)C1CCc2cc(-c3cc(Nc4ccc(N5CCC(O)CC5)cn4)c4c(=O)[nH]ccc4n3)c(F)cc21 (centres unmarked) [I-238, 2-[1-(dimethyl-amino)-6-fluoro-indan-5-yl]-4-[[5-(4-hydroxy-1-piperidyl)-2-pyridyl]amino]-6H-1,6-naphthyridin-5-one] fall in the same range of IC50: 100 to 1000 nM for the first, 100 to 1000 nM for the second.

CCC1(C(=O)Nc2ccc(-c3cc(Nc4ccc(N5CCNCC5)cn4)c4c(=O)[nH]ccc4n3)c(F)c2)CCC1 [I-240, 1-ethyl-N-[3-fluoro-4-[5-oxo-4-[(5-piperazin-1-yl-2-pyridyl)amino]-6H-1,6-naphthyridin-2-yl]phenyl] cyclobutane carboxamide] and CCC1(C(=O)N(C)c2ccc(-c3cc(Nc4ccc(N5CCNCC5)cn4)c4c(=O)[nH]ccc4n3)c(F)c2)CCC1 [I-247, 1-ethyl-N-[3-fluoro-4-[5-oxo-4-[(5-piperazin-1-yl-2-pyridyl)amino]-6H-1,6-naphthyridin-2-yl]phenyl]-N-methyl-cyclobutane-carboxamide] cannot be ordered by IC50: 100 to 1000 nM for the first, at most 100 nM for the second.

COc1cc(-c2cc(Nc3ccc(N4CCC(O)CC4)cn3)c3c(=O)[nH]ccc3n2)c(F)c(F)c1C(=O)N1CCCCC1 [I-241, 2-[2,3-difluoro-5-methoxy-4-(piperidine-1-carbonyl)phenyl]-4-[[5-(4-hydroxy-1-piperidyl)-2-pyridyl]amino]-6H-1,6-naphthyridin-5-one] and COc1cc(-c2cc(Nc3ccc(N4CCC(O)CC4)cn3)c3c(=O)[nH]ccc3n2)c(F)cc1C(=O)N1CC2C(C1)C2(F)F (centres unmarked) [I-251, 2-[4-(6,6-difluoro-3-azabicyclo [3.1.0]hexane-3-carbonyl)-2-fluoro-5-methoxy-phenyl]-4-[[5-(4-hydroxy-1-piperidyl)-2-pyridyl]amino]-6H-1,6-naphthyridin-5-one] cannot be ordered by IC50: 100 to 1000 nM for the first, at most 100 nM for the second.

O=c1[nH]ccc2nc(-c3cc(C4CCCN4)ccc3F)cc(Nc3ccc(N4CCC(O)CC4)cn3)c12 (centres unmarked) [I-243, 2-(2-fluoro-5-pyrrolidin-2-yl-phenyl)-4-[[5-(4-hydroxy-1-piperidyl)-2-pyridyl]amino]-6H-1,6-naphthyridin-5-one] and CC(=O)N1CCCC1c1ccc(F)c(-c2cc(Nc3ccc(N4CCC(O)CC4)cn3)c3c(=O)[nH]ccc3n2)c1 (centres unmarked) [I-248, 2-[5-(1-acetyl-pyrrolidin-2-yl)-2-fluoro-phenyl]-4-[[5-(4-hydroxy-1-piperidyl)-2-pyridyl]amino]-6H-1,6-naphthyridin-5-one] cannot be ordered by IC50: 100 to 1000 nM for the first, at most 100 nM for the second.

CN(C)C1CCc2cc(F)c(-c3cc(Nc4ccc(N5CCC(O)CC5)cn4)c4c(=O)[nH]ccc4n3)cc21 (centres unmarked) [I-244, 2-[3-(dimethyl-amino)-6-fluoro-indan-5-yl]-4-[[5-(4-hydroxy-1-piperidyl)-2-pyridyl]amino]-6H-1,6-naphthyridin-5-one] and O=c1[nH]ccc2nc(-c3cc4c(cc3F)CCC4N3CCCCC3)cc(Nc3ccc(N4CCC(O)CC4)cn3)c12 (centres unmarked) [I-249, 2-[6-fluoro-3-(1-piperidyl)indan-5-yl]-4-[[5-(4-hydroxy-1-piperidyl)-2-pyridyl]amino]-6H-naphthyridin-5-one] cannot be ordered by IC50: at most 100 nM for the first, at most 100 nM for the second.

First: O=c1[nH]ccc2nc(-c3cc(CN4CC5(COC5)C4)ccc3F)cc(Nc3ccc(N4CCC(O)CC4)cn3)c12 [I-250]
Second: O=c1[nH]ccc2nc(-c3cc(CN4CC5(CCOC5)C4)ccc3F)cc(Nc3ccc(N4CCC(O)CC4)cn3)c12 [I-256, 2-[2-fluoro-5-(6-oxa-2-azaspiro [3.4]octan-2-ylmethyl)phenyl]-4-[[5-(4-hydroxy-1-piperidyl)-2-pyridyl]amino]-6H-1,6-naphthyridin-5-one]
The IC50 of the first is lower: at most 100 nM for the first, over 1000 nM for the second. The first is the more potent here.

First: O=c1[nH]ccc2nc(-c3cc(CN4CC5(CCCO5)C4)ccc3F)cc(Nc3ccc(N4CCC(O)CC4)cn3)c12 [I-255, 2-[2-fluoro-5-(5-oxa-2-azaspiro [3.4]octan-2-ylmethyl)phenyl]-4-[[5-(4-hydroxy-1-piperidyl)-2-pyridyl]amino]-6H-1,6-naphthyridin-5-one]
Second: O=c1[nH]ccc2nc(-c3cc4c(cc3F)CCC4N3CC4(CCC4)C3)cc(Nc3ccc(N4CCC(O)CC4)cn3)c12 (centres unmarked) [I-258, 2-[3-(2-azaspiro [3.3]heptan-2-yl)-6-fluoro-indan-5-yl]-4-[[5-(4-hydroxy-1-piperidyl)-2-pyridyl]amino]-6H-1,6-naphthyridin-5-one]
The IC50 of the first is higher: over 1000 nM for the first, 100 to 1000 nM for the second. The second is the more potent here.

O=c1[nH]ccc2nc(-c3ccc(OCc4ccncc4)cc3F)cc(Nc3cc(C4CCOC4)n[nH]3)c12 (centres unmarked) [I-257, 2-[2-fluoro-4-(4-pyridyl-methoxy)phenyl]-4-[(3-THF-3-yl-1H-pyrazol-5-yl)amino]-6H-1,6-naphthyridin-5-one] gave an IC50 of over 1000 nM.
